Assay results: publication PMC7468670, “Biophysical Insight into the Interaction of Human Lysozyme with Anticancer Drug Anastrozole: A Multitechnique Approach” (The Scientific World Journal, 2020)

Molecular target: T1, Human lysozyme (HL) (Homo sapiens, UniProt P61626)
T1 construct: gene LYZ; commercial human lysozyme (Sigma-Aldrich), dialysed; single polypeptide, no subunits; 1REX used for docking only
T1 sequence (P61626 19-148): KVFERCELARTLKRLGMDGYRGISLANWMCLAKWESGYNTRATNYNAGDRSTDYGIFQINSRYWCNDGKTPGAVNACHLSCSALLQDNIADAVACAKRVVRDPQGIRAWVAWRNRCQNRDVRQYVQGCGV
Test: intrinsic fluorescence quenching, modified Stern-Volmer
Format: binding
Settings: 20 mM sodium phosphate pH 7.4, 310 K, 5 uM HL, excitation 280 nm; n = 1.00; double-log
Text: intrinsic fluorescence quenching, modified Stern-Volmer on Human lysozyme (HL)

CC(C)(C#N)c1cc(Cn2cncn2)cc(C(C)(C)C#N)c1 [anastrozole]
Kb: 9660 M⁻¹
